Test results from patent publication US8592579B2, “Pyrrolotriazine kinase inhibitors” (Bristol-Myers Squibb Company, priority 2006, dated 2013).

These molecules were tested on IGF1R-Sal tumors (assay: IGF-1R Sal Tumor Model). Conditions: Mus musculus, 96 h, 6.25 mpk, qd, oral, 4 consecutive days, read-out: IGF-1R Sal % TGI.
Assay type: in vivo, nude mice
Experimental: A salivary gland adenocarcinoma that developed spontaneously in a transgenic mouse (MCI-19) was excised and cut into fragments of about 20 mg. Tumor fragments were implanted s.c. into the ventral thoracic region of a group of six female, athymic BALB/c nu/nu mice (Harley Sprague-Dawley, Indianapolis, Ind.), using a 13-gauge trocar. Once established, the salivary gland-derived tumor line was designated IGF 1R-Sal and was propagated as a tumor xenograft in nude mice. Tumors were passaged every 2 weeks, at which time the tumor reached f500 to 1,000 mm3 in size. […] Compounds were administered either on a bid schedule (oral doses 8 hours apart) or on a once a day schedule orally (qd) for 4 consecutive days. Tumors were measured at the start and end of treatment. Activity was measured as % tumor growth inhibition (% TGI). The % TGI was determined using the following formula (Ct−Tt)/(Ct−Co) where Ct is defined as the median tumor size of the control group at the end of treatment, Co is defined as the median tumor size of the control group at the start of treatment, and Tt is defined as the median tumor size of the treated group at the end of treatment.

`CNC(=O)[C@@H]1CCCN1c1nc(Nc2cc(C3CC3)[nH]n2)c2cccn2n1` [Example 3, (S)-1-(4-(5-cyclopropyl-1H-pyrazol-3-ylamino)pyrrolo[1,2-f][1,2,4]triazin-2-yl)-N-methylpyrrolidine-2-carboxamide] gave an inhibition in vivo at 6.25 mg/kg of 80%.

Same assay, conditions: Mus musculus, 96 h, 25 mpk, bid, oral, 4 consecutive days, read-out: IGF-1R Sal % TGI

`C[C@@]1(C(=O)Nc2cccnc2)CCCN1c1nc(Nc2cc(C3CC3)[nH]n2)c2cccn2n1` [Example 68] and `Cc1cc(Nc2nc(N3CCC[C@@]3(C)C(=O)Nc3cccnc3)nn3cccc23)n[nH]1` [Example 85] are the same in inhibition in vivo at 25 mg/kg: 76% for the first, 76% for the second.

Compared with `O=C(Nc1ccc(F)nc1)[C@@H]1C[C@@H](O)CN1c1nc(Nc2cc(C3CC3)[nH]n2)c2cccn2n1` [Example 217, (2S,4R)-1-(4-(5-cyclopropyl-1H-pyrazol-3-ylamino)pyrrolo[1,2-f][1,2,4]triazin-2-yl)-N-(6-fluoropyridin-3-yl)-4-hydroxypyrrolidine-2-carboxamide], `O=C(Nc1nccs1)[C@@H]1C[C@@H](F)CN1c1nc(Nc2cc(C3CC3)[nH]n2)c2cccn2n1` [Example 198, (2S,4R)-1-(4-(5-cyclopropyl-1H-pyrazol-3-ylamino)pyrrolo[1,2-f][1,2,4]triazin-2-yl)-4-fluoro-N-(thiazol-2-yl)pyrrolidine-2-carboxamide] is higher in inhibition in vivo at 25 mg/kg: 0% for the first, 124% for the second.

First: CC1(c2cc(Nc3nc(N4CCC[C@H]4C(=O)N[C@@H]4CCCNC4)nn4cccc34)n[nH]2)CC1 [Example 194, (S)-1-(4-(5-(1-methylcyclopropyl)-1H-pyrazol-3-ylamino)pyrrolo[1,2-f][1,2,4]triazin-2-yl)-N-((R)-piperidin-3-yl)pyrrolidine-2-carboxamide]
Second: CC(C)n1cnc(Nc2nc(N3CCC[C@H]3C(=O)NC3CCCN(C)C3)nn3cccc23)c1 (stereo partly drawn) [Example 236, (S)-1-(4-(1-Isopropyl-1H-imidazol-4-ylamino)pyrrolo[1,2-f][1,2,4]triazin-2-yl)-N-((R)-1-methylpiperidin-3-yl)pyrrolidine-2-carboxamide]
The inhibition in vivo at 25 mg/kg of the first is lower: 52% for the first, 113% for the second.

`Cc1cc(NC(=O)[C@]2(C)CCCN2c2nc(Nc3cc(C4CC4)[nH]n3)c3cccn3n2)n[nH]1` [Example 135] showed an inhibition in vivo at 25 mg/kg of 25%.

Same assay, conditions: Mus musculus, 96 h, 50 mpk, qd, oral, 4 consecutive days, read-out: IGF-1R Sal % TGI

First: CC(C)n1cnc(Nc2nc(N3C[C@@H](O)C[C@H]3C(=O)Nc3cnccn3)nn3cccc23)c1 [Example 245, (2S,4S)-4-hydroxy-1-(4-(1-isopropyl-1H-imidazol-4-ylamino)pyrrolo[L2-f][1,2,4]triazin-2-yl)-N-(pyrazin-2-yl)pyrrolidine-2-carboxamide]
Second: O=C(Nc1cnccn1)[C@@H]1C[C@@H](F)CN1c1nc(Nc2cc(C3CC3)[nH]n2)c2cccn2n1 [Example 206]
The inhibition in vivo at 50 mg/kg of the first is higher: 112% for the first, 111% for the second.

With `C[C@@]1(C(=O)Nc2cnccn2)C[C@H](O)CN1c1nc(Nc2cc(C3CC3)[nH]n2)c2cccn2n1` [Example 227, (2S,4S)-1-(4-(5-cyclopropyl-1H-pyrazol-3-ylamino)pyrrolo[1,2-f][1,2,4]triazin-2-yl)-4-hydroxy-2-methyl-N-(pyrazin-2-yl)pyrrolidine-2-carboxamide] the inhibition in vivo at 50 mg/kg was 115%.
